According to patent US20260207522A1, “YEAST CELL WALL PARTICLE ENCAPSULATION OF BIODEGRADABLE PRO-PAYLOADS” (UNIVERSITY OF MASSACHUSETTS, priority 2018, published 2026):

Assays:
[1] = loading into yeast cell wall particles; format: physicochemical
Method: To create encapsulated pro-payloads, water-insoluble pro-payloads are dissolved in a suitable solvent compatible with the glucan particles (e.g., dimethylsulfoxide, methanol, etc.). After loading the pro-payloads into glucan shells, the glucan particle pro-payload is processed to remove the solvent.
The pro-payload CS-AcA was dissolved in a suitable solvent and combined with extracted yeast cell wall particles to create encapsulated CS-AcA.
The pro-payload INH-LA was dissolved in a suitable solvent and combined with extracted yeast cell wall particles to create encapsulated INH-LA.

[2] = in vitro release assay of naproxen from YCWPs; format: physicochemical; conditions: pH 7
Method: The pro-payload Nap-An was dissolved in a suitable solvent and combined with extracted yeast cell wall particles to create encapsulated Nap-An.

H. pylori = conditions: concentration of 2 mg/L; cited from earlier work
C. albicans = conditions: Bard et al.; cited from earlier work
S. cerevisiae = conditions: Bard et al.; cited from earlier work

Compound	amount loaded into yeast cell wall particles [1]	other results
cycloserine acetylacetone [CS-AcA]	≤ 70%	–
COc1ccc2cc(C(C)C(=O)OC(=O)C(C)c3ccc4cc(OC)ccc4c3)ccc2c1 (stereo not shown) [Nap-An, naproxen anhydride]	–	50% release time (RT50) [2]: greater than 13.5 hours
CCCCCCCCCCCC(=O)NNC(=O)c1ccncc1 [INH-LA, isoniazid lauric acid]	up to 89%	–
doxorubicin-isophorone diisocyanate [Dox-IPDI]	up to 92%	–
N[C@@H]1CON=C1O [CS, cycloserine]	≤ 14%	–
CC(C)=CCC/C(C)=C/CO [geraniol]	–	in vitro growth of H. pylori (H. pylori): inhibited; growth of C. albicans strains (C. albicans): inhibit the growth; growth of S. cerevisiae strains (S. cerevisiae): inhibit the growth
doxorubicin-isoniazid [Dox-INH]	up to 61%	–
NNC(=O)c1ccncc1 [INH, isoniazid]	0%	–
